We go through twelve molecules from patent US11878973B2, “Bicyclic compounds and their uses” (NOVARTIS AG, priority 2021, dated 2024).

Like-named read-outs stand apart in the source and are kept apart here.

One assay deals with WRN helicase (Homo sapiens (Human), UniProt Q14191). In words: In vitro enzymatic activity assay on WRN helicase (DNA dependent ATPase assay, ADP-Glo). The conditions noted are these: geometric means of at least 2 determinations; read-out: WRN ATPase Activity (IC50). The format is biochemical. The text has this: An ATPase assay was set up to measure the DNA dependent ATP hydrolysis activity of WRN helicase. This assay was used also to assess the inhibition properties of compounds of the invention on DNA dependent WRN ATPase activity.
WRN helicase, sequence (Q14191 517-1238): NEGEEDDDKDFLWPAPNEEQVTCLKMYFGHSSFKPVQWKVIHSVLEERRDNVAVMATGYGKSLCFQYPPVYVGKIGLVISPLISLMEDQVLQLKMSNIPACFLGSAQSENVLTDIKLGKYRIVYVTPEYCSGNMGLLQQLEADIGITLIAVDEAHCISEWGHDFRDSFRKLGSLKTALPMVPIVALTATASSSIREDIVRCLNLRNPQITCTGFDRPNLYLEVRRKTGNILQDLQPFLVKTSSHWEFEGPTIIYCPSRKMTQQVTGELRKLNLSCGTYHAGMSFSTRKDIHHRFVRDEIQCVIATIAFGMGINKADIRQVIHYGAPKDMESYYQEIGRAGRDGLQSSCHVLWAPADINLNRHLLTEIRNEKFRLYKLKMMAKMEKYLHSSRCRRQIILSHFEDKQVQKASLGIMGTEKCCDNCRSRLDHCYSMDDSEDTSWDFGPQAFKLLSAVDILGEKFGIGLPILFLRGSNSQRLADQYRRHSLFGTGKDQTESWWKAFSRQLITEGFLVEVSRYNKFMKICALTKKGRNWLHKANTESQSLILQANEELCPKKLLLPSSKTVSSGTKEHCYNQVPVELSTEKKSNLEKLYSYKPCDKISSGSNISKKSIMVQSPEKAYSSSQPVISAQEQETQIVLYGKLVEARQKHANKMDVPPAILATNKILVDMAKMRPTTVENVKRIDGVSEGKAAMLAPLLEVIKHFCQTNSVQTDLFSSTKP
The core helicase motif of the WRN protein (aa N517-P1238) was produced for this assay (protein production as described above). […] The ADP-Glo assay kit (Promega, Madison, WI) allowing the quantification of ADP produced in ATP hydrolysis reactions was used for setting up this assay.
Time course experiments were first performed in order to determine the best enzymatic assay conditions (including buffer conditions, reaction time and concentrations of protein, ATP and DNA substrates). A typical reaction consists of 10 nM WRN protein, 0.2 nM FLAP26, and 300 micromolar ATP in the following assay buffer: 30 mM Tris pH7.5, 2 mM MgCl2, 0.02% BSA, 50 mM NaCl, 0.1% pluronic F127 prepared in DNAse free water. To evaluate the inhibition properties of compounds of the invention, serial dilutions were prepared in DMSO (10 half log dilutions from a 10 mM DMSO solution). […] The reaction was started by addition of 2.5 microliters of FLAP26 at 0.4 nM and incubated for 30 minutes at room temperature. The reaction was stopped with the addition of 5 microliters of the first ADP-Glo reagent and incubated for one hour to remove the excess amount of ATP. Afterwards, 10 microliters of ATP detection reagent was added and incubated for an additional hour before reading. Luminescence output was recorded using Tecan 1000 reader, with 5 minutes delay before reading. Each concentration of compound was tested in duplicates in the assay plate.
Following normalization of activity values for the wells to % inhibition (% inhibition=[(high control-sample)/(high control-low control)]×100), IC50 fitting was carried out from the duplicate determinations present on each plate according to [4]. Data analysis can also be carried out using commercially available software designed to derive IC50 values using 4-parameter fits (e.g. GraphPad Prism, XL fit). The reported IC50 values are the geometrical means of at least 2 independent replicates.
On the technique in general: ADP-Glo turns the ADP formed in a reaction into a luminescent signal.

Another assay deals with SW48 cells. Kind of assay: Proliferation assay SW48 (CellTiterGlo, 96 hours). (In general: Cellular ATP, detected with luciferase, serves as a proxy for viable cell number.)
Another assay deals with DLD1-WRN-KO cells. Kind of assay: Proliferation assay DLD1-WRN-KO (CellTiterGlo, 96 hours; off-target effects). The conditions noted are these: read-out: Proliferation Assay DLD1-WRN-KO (GI50).
The mark [1] stands for this setting: read-out: Proliferation Assay SW48 (GI50), SW48 cell line, geometric means of at least 2 determinations.
The mark [2] stands for this setting: DLD1-WRN-KO cell line, geometric means of at least 2 determinations.
[3] abbreviates: Homo sapiens, SW48, read-out: Proliferation Assay SW48 (GI50).

Experimental for DLD1-WRN-KO cells: The WRN-knockdown insensitive colon carcinoma cell line DLD-1 (RRID: CVCL_0248) was obtained from the Korean Cell Line Bank (KCLB), and used to generate a derivative in which the endogenous WRN gene copies were knocked out by CRISPR-mediated editing using standard CRISPR methods. The resulting cell line, DLD1-WRN—KO, was used to assess potential off-target compound effects.
All cells were maintained at 37° C. in a humidified 5% CO2 incubator.
For data analysis, the assay background signal that was determined in wells containing medium, but no cells, was subtracted from all other data points prior to further calculations. The extent of growth inhibition and potential cell kill was assessed by comparing the ATP levels (measured using CellTiterGlo, Promega) in compound-treated cells with those present at the time of compound addition. […] 100%, 0% and −100% signify absence of growth inhibition, growth stasis, and complete cell kill, respectively. Compound concentrations leading to half-maximal growth inhibition (G150) and residual cell viability at the highest tested compound concentration (Data (cmax), expressed in percent) were routinely calculated. Data analysis can also be carried out using commercially available software designed to derive IC50 values using 4-parameter fits (e.g. GraphPad Prism, XL fit). The reported GI50 values are the geometrical means of at least 2 independent replicates.

On to `CCc1c(N2CCN(C(=O)c3ncccc3O)CC2)c(=O)n2nc(N3CCC[C@@H](F)C3)nc2n1CC(=O)Nc1ccc(C(F)(F)F)cc1Cl` (single isomer, unassigned) [Example 15b, ((R)—N-(2-chloro-4-(trifluoromethyl)phenyl)-2-(5-ethyl-2-(3-fluoropiperidin-1-yl)-6-(4-(3-hydroxypicolinoyl)piperazin-1-yl)-7-oxo-[1,2,4]triazolo[1,5-a]pyrimidin-4(7H)-yl)acetamide) or ((S)—N-(2-chloro-4-(trifluoromethyl)phenyl)-2-(5-ethyl-2-(3-fluoropiperidin-1-yl)-6-(4-(3-hydroxypicolinoyl)piperazin-1-yl)-7-oxo-[1,2,4]triazolo[1,5-a]pyrimidin-4(7H)-yl)acetamide)], for which the IC50 at WRN helicase worked out at 120 nM. In addition, the values for the GI50 with SW48 cells (setting [1]) and in the assay with DLD1-WRN-KO cells (setting [2]) were 360 nM and greater than 10000 nM, respectively.
For `CCc1c(N2CCN(C(=O)c3nc(C)cc(F)c3O)CC2)c(=O)n2nc(C3=CCOCC3)nc2n1CC(=O)Nc1ccc(C(F)(F)F)cc1C` [Example 62, 2-(2-(3,6-dihydro-2H-pyran-4-yl)-5-ethyl-6-(4-(4-fluoro-3-hydroxy-6-methylpicolinoyl)piperazin-1-yl)-7-oxo-[1,2,4]triazolo[1,5-a]pyrimidin-4(7H)-yl)-N-(2-methyl-4-(trifluoromethyl)phenyl)acetamide], the IC50 on WRN helicase is 50 nM. The GI50 is 50 nM in the assay on SW48 cells (setting [3]) and greater than 10000 nM with DLD1-WRN-KO cells (Homo sapiens).
Take `CCc1c(N2CCN(C(=O)c3ncccc3O)CC2)c(=O)n2nc(C3=CC[C@H](OC)CC3)nc2n1CC(=O)Nc1ccc(C(F)(F)F)nc1Cl` (single isomer, unassigned) [Example 25a, ((R)—N-(2-chloro-6-(trifluoromethyl)pyridin-3-yl)-2-(5-ethyl-6-(4-(3-hydroxypicolinoyl)piperazin-1-yl)-2-(4-methoxycyclohex-1-en-1-yl)-7-oxo-[1,2,4]triazolo[1,5-a]pyrimidin-4(7H)-yl)acetamide) or ((S)—N-(2-chloro-6-(trifluoromethyl)pyridin-3-yl)-2-(5-ethyl-6-(4-(3-hydroxypicolinoyl)piperazin-1-yl)-2-(4-methoxycyclohex-1-en-1-yl)-7-oxo-[1,2,4]triazolo[1,5-a]pyrimidin-4(7H)-yl)acetamide)]: the 50% inhibitory concentration (IC50) on WRN helicase amounted to 160 nM. The GI50 in the assay with SW48 cells (setting [1]) is 50 nM; in the assay with DLD1-WRN-KO cells (setting [2]), greater than 10000 nM.
On to `CCc1c(N2CCN(C(=O)c3ncccc3O)CC2)c(=O)n2nc(C3=CCOCC3)nc2n1CC(=O)Nc1cc(F)c(C(F)(F)F)nc1C` [Example 70, 2-(2-(3,6-dihydro-2H-pyran-4-yl)-5-ethyl-6-(4-(3-hydroxypicolinoyl)piperazin-1-yl)-7-oxo-[1,2,4]triazolo[1,5-a]pyrimidin-4(7H)-yl)-N-(5-fluoro-2-methyl-6-(trifluoromethyl)pyridin-3-yl)acetamide], for which, at WRN helicase, the IC50 turned out to be 100 nM. Besides, the values for the GI50 in the assay on SW48 cells (setting [3]) and in the assay with DLD1-WRN-KO cells (Homo sapiens) were 220 nM and greater than 10000 nM, respectively.
In the same order, the values of `CCc1c(N2CCN(C(=O)c3nccc(Cl)c3O)CC2)c(=O)n2nc(C3=CCOCC3)nc2n1CC(=O)Nc1ccc(C(F)(F)F)cc1C` [Example 61, 2-(6-(4-(4-chloro-3-hydroxypicolinoyl)piperazin-1-yl)-2-(3,6-dihydro-2H-pyran-4-yl)-5-ethyl-7-oxo-[1,2,4]triazolo[1,5-a]pyrimidin-4(7H)-yl)-N-(2-methyl-4-(trifluoromethyl)phenyl)acetamide] are 50 nM, 50 nM and greater than 10000 nM.
As to `CCc1c(N2CCN(C(=O)c3nccc(Cl)c3O)CC2)c(=O)n2nc(C3=CC[C@H](OC)CC3)nc2n1CC(=O)Nc1ccc(C(F)(F)F)nc1Cl` (single isomer, unassigned) [Example 24b], the IC50 at WRN helicase is 100 nM. For the same molecule, the GI50 in the assay on SW48 cells (setting [1]) was 50 nM; in the assay on DLD1-WRN-KO cells (setting [2]) it was greater than 10000 nM.
`Cc1c(C2CCN(C(=O)c3ncccc3O)CC2)c(=O)n2nc(C3=CCOCC3)nc2n1CC(=O)Nc1ccc(C(F)(F)F)cc1` [Example 136, 2-(2-(3,6-dihydro-2H-pyran-4-yl)-6-(1-(3-hydroxypicolinoyl)piperidin-4-yl)-5-methyl-7-oxo-[1,2,4]triazolo[1,5-a]pyrimidin-4(7H)-yl)-N-(4-(trifluoromethyl)phenyl)acetamide]: the IC50 at WRN helicase came to 80 nM. Besides, the GI50 in the assay with SW48 cells (setting [3]) was 650 nM; in the assay on DLD1-WRN-KO cells (Homo sapiens) it was greater than 10000 nM.
In the same order, the values of `CCc1c(N2CCN(C(=O)c3ncnc(C)c3O)C[C@@H]2C)c(=O)n2nc(C3=CCOCC3)nc2n1CC(=O)Nc1ccc(C(F)(F)F)cc1Cl` [Example 87, (S)—N-(2-chloro-4-(trifluoromethyl)phenyl)-2-(2-(3,6-dihydro-2H-pyran-4-yl)-5-ethyl-6-(4-(5-hydroxy-6-methylpyrimidine-4-carbonyl)-2-methylpiperazin-1-yl)-7-oxo-[1,2,4]triazolo[1,5-a]pyrimidin-4(7H)-yl)acetamide] are 110 nM, 60 nM and greater than 10000 nM.
In the same order, the values of `CCc1c(N2CCN(C(=O)c3ncccc3O)CC2)c(=O)n2nc(N3CCOCC3)nc2n1CC(=O)Nc1cc(C(F)(F)F)c(Cl)cc1C` [Example 12, N-(4-chloro-2-methyl-5-(trifluoromethyl)phenyl)-2-(5-ethyl-6-(4-(3-hydroxypicolinoyl)piperazin-1-yl)-2-morpholino-7-oxo-[1,2,4]triazolo[1,5-a]pyrimidin-4(7H)-yl)acetamide] are 130 nM, 550 nM and greater than 10000 nM.
In the same order, the values of `CCc1c(N2CCN(C(=O)c3ncccc3O)CC2)c(=O)n2nc(C3=CCOCC3)nc2n1CC(=O)Nc1ccc(C(F)(F)F)nc1Cl` [Example 45, N-(2-chloro-6-(trifluoromethyl)pyridin-3-yl)-2-(2-(3,6-dihydro-2H-pyran-4-yl)-5-ethyl-6-(4-(3-hydroxypicolinoyl)piperazin-1-yl)-7-oxo-[1,2,4]triazolo[1,5-a]pyrimidin-4(7H)-yl)acetamide] are 130 nM, 80 nM and greater than 10000 nM.
For `CCc1c(N2CCN(C(=O)c3ncccc3O)CC2)c(=O)n2nc(C3=CCOCC3)nc2n1CC(=O)Nc1ccc(C(F)(F)F)c(F)c1C` [Example 38, 2-(2-(3,6-dihydro-2H-pyran-4-yl)-5-ethyl-6-(4-(3-hydroxypicolinoyl)piperazin-1-yl)-7-oxo-[1,2,4]triazolo[1,5-a]pyrimidin-4(7H)-yl)-N-(3-fluoro-2-methyl-4-(trifluoromethyl)phenyl)acetamide], the IC50 at WRN helicase was 40 nM. The GI50 with SW48 cells (setting [3]) was 50 nM; in the assay with DLD1-WRN-KO cells (Homo sapiens), greater than 10000 nM.
In the same order, the values of `CCc1c(N2CCN(C(=O)c3ncccc3O)CC2)c(=O)n2nc(N3C[C@@H](F)[C@@H](F)C3)nc2n1CC(=O)Nc1ccc(C(F)(F)F)cc1C` [Example 23, 2-(2-((3R,4S)-3,4-difluoropyrrolidin-1-yl)-5-ethyl-6-(4-(3-hydroxypicolinoyl)piperazin-1-yl)-7-oxo-[1,2,4]triazolo[1,5-a]pyrimidin-4(7H)-yl)-N-(2-methyl-4-(trifluoromethyl)phenyl)acetamide] are 260 nM, 1540 nM and greater than 10000 nM.

For orientation: IC50 means the concentration that inhibits the measured activity by half.
